These results are taken from patent publication US11267809B2, “BAF complex modulating compounds and methods of using the same” (THE BOARD OF TRUSTEES OF THE LELAND STANFORD JUNIOR …, priority 2017, dated 2022).

SMILES strings stand for the structures.

The test system of data set [1] is ACHN renal clear cell carcinoma cell line. In words: Synergy viability assay, ACHN. Type of data set: cell-based, human. The note with it: with VE-821, PBRM1 mutant line. From the text:
(§1) In ARID1A-deficient tumors, ATR inhibition is thought to trigger premature mitotic entry and chromosome instability that cannot be resolved, resulting in mitotic catastrophe^27. […] We sought to assess whether generic BAF inhibition might sensitize a host of cancers to ATR inhibition. We tested the efficacy of BAFi and ATRi on nine additional human cancer cell lines including seven Breast cancer cell lines (HCC1143, HCC1954, HCC1187, MDAMB-468, MDA-MB-436, Cal-51, MCF-7) and two renal clear cell carcinoma cell lines (A-704, and ACHN). Cal-51 and MCF-7 are both considered aggressive, highly mutated breast cancer cell lines with numerous COSMIC Census gene mutations (FIG. 10). HCC1143 and MDA-MB-468 are sporadic basal-likecancers, HCC1187 is a triple-negative breast cancer, and HCC1954 and MDA-MB-436 are BRCA1 mutant breast cancers which harbor single driver mutations. To assess synergy, each cell line was treated with 5 doses of VE-821 (1.25 uM-20 uM) and 5 doses of Baficillin1 (1.25 uM-20 uM), both independently and with all possible combinations. Like HCT-116 cells, Baficillin1 sensitized MCF-7 and Cal-51 cells lines to treatment with VE-821 (FIG. 6a).
(§2) Viability assays were performed in 384-well plates. Cells were plated at 500 cells/well. […] After 5 days, cellular viability was measured using CellTitre blue, as described by the manufacturer.

For another data set, the system named is MCF-7 cells. Description: Synergy viability assay, MCF-7. Type of data set: cell-based, human. The note with it: with VE-821 (1.25-20 uM each).
From the text: as §1, §2

Data set [2] concerns A-704 renal clear cell carcinoma cell line. Description: Synergy viability assay, A-704. The note with it: with VE-821, PBRM1 mutant line. Type of data set: cell-based, human.
From the text: as §1, §2

Another data set concerns MDA-MB-436 cells. In words: Synergy viability assay, MDA-MB-436. Type of data set: cell-based, human.
From the text: as §1, §2

The test system of data set [3] is HCT116 cells infected with shRNA lentivirus targeting ARID2. In words: Synergy viability assay, HCT116 with shARID2 knockdown. Type of data set: cell-based, human. The note with it: with VE-821, 5 days. An excerpt: SMARCA4, the primary target of our original screen, is present in both human BAF and PBAF complexes in cancer^12. PBAF complexes differ from BAF complexes by incorporation of specific subunits. Specifically, PBAF complexes contain ARID2 (as opposed to ARID1A/B), PHF10 (BAF45a) (as opposed to […] (BAF45d)), PBRM1, and lack the BAF-specific subunit SS18. PBAF specific subunits are also frequently mutated in cancer, specifically renal clear cell carcinomas and cholangiocarcinomas^33-36. To assess whether the lead compound is targeting BAF, PBAF complexes, or both, we constitutively knocked down ARID1A or ARID2 by lentiviral transduction of HCT116 cells and compared the BAFi/ATRi synergy to the wild-type (ARID1A+/+). […] Further, upon knockdown of ARID1A or ARID2 (FIG. 3b), the synergistic effect observed between Baficillin1 and VE-821 was ablated upon loss of ARID1A (FIG. 3e) (CIshARID1A=1.48±0.14), but not loss of shARID2 (CIshARID2=0.42±0.04) (FIG. 3c-e).
Viability assays were performed in 384-well plates. Cells were plated at 500 cells/well. Each drug was administered in 5-doses with 4 replicates per plate, and each 5×5 drug combination was administered with 8 replicates per plate, 24 hours after seeding. […] After 5 days, cellular viability was measured using CellTitre blue, as described by the manufacturer. […]

In the next data set the test system is mESCs. In words: Toxicity in mouse embryonic stem cells (cell cycle arrest). Type of data set: cell-based. The procedure:
From our initial Bmi1 screen, we chose 8 representative compounds to compare to the lead candidate which were either commercially available, or comprised of the same oxadiazacyclodecone 12-member macrocyclic stereoisomer backbone as Baficillin1. […] To examine a structure-activity-relationship of the compounds, HCT116 cells were then treated with increasing doses of VE-821 (1 uM-30 uM) and increasing doses of the putative inhibitors (1 uM-30 uM), both independently and with all possible combinations followed by quantification of synergy (FIG. 4c-h).
FIG. 4: Structure Activity Relationship of Putative BAF Inhibitors. […]
For hour-by-hour analysis, cells were collected, rinsed with PBS, and vortexed while adding 1mL ice cold 70% ethanol. […] Individual cells were gated based on forward and side scatter, auto fluorescent cells were omitted, and remaining cells were then analyzed for propidium iodide levels. To determine the percent of cells in each phase, DNA content histograms histograms were analyzed using R-package “mixtools” EM algorithm for mixtures of univariate normals. The areas of each mixed normal distribution were calculated to represent the total number of cells in each phase of the cell cycle. […] ESCs were incubated with BrdU for 1 h and the percent of cells in G2/M, stained with 7-AAD and analyzed on a BD FACScan.

As to `CO[C@H]1CN(C)C(=O)c2cc(NC(=O)NC(C)C)ccc2OC[C@H](C)N(Cc2ccc(-c3ccccn3)cc2)C[C@@H]1C` [Baficillin1], the “combinatorial effects of BAFi/ATRi” value in data set [1] is “antagonism”; in data set [2], “antagonism”; in the data set on MDA-MB-436 cells (with VE-821), “strictly additive”. In addition, the “combination index (CI MCF-7)” value with MCF-7 cells came out at 0.45±0.04. Further, in the data set on MDA-MB-436 cells (single agent, BRCA1 mutant line), the “sensitivity to Baficillin1 independently” value was “significantly more sensitive”. Also, in data set [3], the “combination index (CI shARID2)” value is listed as 0.42±0.04. In addition, the “toxicity in mESCs” value in the data set on mESCs is “largely non-toxic”.
